Columns and labels:
[1] = in vitro erosion cycling protocol (citric acid challenge, transverse microradiography); set-up: species or system human; conditions: for Surface Loss: aqueous solutions of test organophosphates (control: dentifrice slurry 1:3) in pooled human saliva, 1% citric acid 10 min, 4 treatments/day, 5 days, depth of total mineral loss by TMR; for % reduction vs. regular F control: reduction in surface mineral loss relative to Fluoride toothpaste (1100 ppm F), aqueous solutions
Description: The effectiveness of compositions of the present invention containing an organophosphate was evaluated according to the following in vitro erosion cycling protocol.
Tooth (dentin or enamel) specimens are prepared by cutting 3 mm-4 mm cores from extracted, human teeth using a diamond core drill. The teeth, collected by local surgeons, are stored until use in a 5% Thymol solution maintained at room temperature. Specimens are mounted on lucite rods with a dental acrylic (Dura Base, Reliance Mfg. Co.) covering all sides except the surface. Course polishing with 600-grit silicon carbide-water slurry is used to remove approximately 50 microns of the outer specimen surface to ensure homogeneity among specimens. Specimens are then polished with gamma alumina (Buehler No. 3, B Gamma Micropolish Alumina) to a mirror-like finish.
Approximately ⅔ of the surface of each specimen is then covered with an acid resistant nail polish (placed in a mesial-distal fashion), leaving the center portion exposed as a treatment window. Covered portions remain covered with the acid-resistant nail polish throughout the experiment, serving as the control (untreated) areas for later microradiographic analysis. Specimens are randomly assigned to one of four treatment groups (4 specimens/group).
Each group of specimens is placed in 20 ml of fresh, pooled human saliva for at least one hour to form an initial layer of pellicle on the specimen surfaces prior to first day of treatment. To begin the treatment phase, aqueous solutions of the test organophosphates and dentifrice slurry (1:3) of the control fluoride toothpaste are prepared in fresh, pooled human saliva. Each treatment cycle consists of: dentifrice slurry (2 min)→rinse in deionized distilled H2O→saliva (1 hour)→erosion challenge (10 min)→rinse in ddiH2O→saliva. There are 4 treatments per day for a total of five treatment days. Dentifrice treatments consist of immersing the specimens into the dentifrice slurry for two minutes while specimens rotate at 75 rpm. The erosion challenge consists of soaking each treatment group in 12 ml of 1% Citric acid (at room temperature). At any time specimens are not in treatment, they remain in 20 ml of pooled, human saliva (stirred). The saliva is refreshed 3×/day. At night, each group of specimens remains immersed in saliva (stirred at room temperature).
After 5 days of treatment, thin cross-sections (80-120 μm thick) of each specimen are removed for assessment using standardized transverse microradiography (TMR) techniques. The exposed, treated area of each specimen is assessed with respect to complete mineral loss (erosion). Results with simple aqueous solutions of various alkyl phosphate compounds are presented in Table 1 as depth (in microns) of total mineral loss from the original specimen surface using the covered (untreated) areas as anatomical reference points. For comparison, percent reduction in surface mineral loss is calculated relative to water or fluoride containing compositions.

[2] = compatibility of organophosphate additives with stannous fluoride solutions: visual inspection and soluble tin in supernatant; type: physicochemical
Description: Aqueous formulations of polyvalent metal antibacterial agents were prepared and evaluated for clarity, chemical content and performance when mixed with various organophosphate additives as described above. The compositions comprise stannous fluoride as an example of polyvalent metal cation in combination with sodium gluconate or sodium tripolyphosphate as stabilizer and organophosphate additives. The compositions also contained zinc. […] Following addition of additives, the solutions were immediately inspected for any visual changes and then analyzed for soluble tin in the supernatants after centrifugation.

[3] = system: total aerobes (pooled saliva inoculum); experiment: bacterial time kill assay of CPC mouthrinse formulations; type: cell-based; conditions: 30 seconds
[4] = 0.454% stannous fluoride/3.0% sodium tripolyphosphate solution, additive 2.0%
[5] = stannous fluoride/sodium gluconate solution, additive 0.5%
[6] = stannous fluoride/sodium gluconate solution, additive 1.0%
[7] = stannous fluoride/sodium tripolyphosphate solution, additive 1.0%
[8] = mouthrinse: organophosphate additive 0.05%, CPC 0.05%
[9] = mouthrinse: organophosphate additive 0.1%, CPC 0.1%
[10] = stannous fluoride/sodium gluconate solution, additive 0.2%
[11] = stannous fluoride/sodium tripolyphosphate solution, additive 0.08%
[12] = 0.454% stannous fluoride/0.6% sodium gluconate solution, additive 2.0%

## PPG5 ceteareth-10 phosphate [CrodaphosSG]
[1]
  Surface Loss: 18.50 μm
  % reduction vs. regular F control: 45.19%

## Laureth-1 phosphate [MAP L210]
[1]
  Surface Loss: 25.75 μm
  % reduction vs. regular F control: 23.70%
[2]; [4]
  Soluble Tin: 1888 ppm
  Visual Inspection: Slight precipitate
[2]; [5]
  Soluble Tin: 1419 ppm
  Visual Inspection: Slight precipitate

## Laureth 3 phosphate [Foamphos L-3]
[1]
  Surface Loss: 13.25 μm
  % reduction vs. regular F control: 60.74%
[2]; [6]
  Soluble Tin: 1371 ppm
  Visual Inspection: Slight precipitate
[2]; [7]
  Soluble Tin: 3496 ppm
  Visual Inspection: Slight hazy
[3]; [8]
  Log Reduction vs. water control: 2.04
[3]; [9]
  Log Reduction vs. water control: 2.05

## Potassium C12/13 phosphate [MAP 230K]
[1]
  Surface Loss: 10.50 μm
  % reduction vs. regular F control: 68.89%
[2]; [10]
  Soluble Tin: 2015 ppm
  Visual Inspection: Slight precipitate
[2]; [11]
  Soluble Tin: 2814 ppm
  Visual Inspection: Slight precipitate
[3]; mouthrinse: organophosphate additive 0.0335%, CPC 0.0165%
  Log Reduction vs. water control: −0.05
[3]; mouthrinse: organophosphate additive 0.04%, CPC 0.01%
  Log Reduction vs. water control: −0.01

## Laureth-9 phosphate [Foamphos L-9]
[2]
  clarity of stannous fluoride solutions (in words): clear solutions
  soluble stannous (in words): high levels of soluble stannous
[2]; [12]
  Soluble Tin: 3145 ppm
  Visual Inspection: Slight hazy
[2]; [4]
  Soluble Tin: 2511 ppm
  Visual Inspection: Clear
[3]; [8]
  Log Reduction vs. water control: 2.76
[3]; mouthrinse: organophosphate additive 0.1%, CPC 0.05%
  Log Reduction vs. water control: 2.76
[3]; [9]
  Log Reduction vs. water control: 2.76

## Trilaureth-4 phosphate [Hostaphat KL 340D]
[1]
  Surface Loss: 22.50 μm
  % reduction vs. regular F control: 33.33%

## Sodium diLaureth-10 phosphate [DLP-10]
[2]; [12]
  Soluble Tin: 2886 ppm
  Visual Inspection: Clear
